Data as given in patent US9746463B2 (THE TRUSTEES OF COLUMBIA UNIVERSITY IN THE CITY OF NEW YORK, priority 2006, dated 2017).
Ends that are not written are not given here.

Legend:
[1] = Osteocalcin subcutaneous infusion in wt mice: glycemia; type: in vivo, mouse; conditions: wild type mice, 0.3, 1 and 3 ng/hour subcutaneously for 28 days, vs PBS
Description: FIG. 10. […] Indicated doses of recombinant osteocalcin or PBS were infused subcutaneously for 28 days in wt mice. Blood glucose was measured at indicated days.
An in vivo experiment was conducted in which the effect of undercarboxylated osteocalcin on glycemia was monitored. Wild type mice were infused with 3 different amounts of mouse recombinant undercarboxylated osteocalcin or placebo (PBS) subcutaneously for 28 days (0.3, 1 and 3 ng/hour).

[2] = Osteocalcin subcutaneous infusion in wt mice: glucose tolerance after glucose injection; type: in vivo, mouse; conditions: wild type mice, 0.3 or 3 ng/hour subcutaneously for 14 days, then glucose injection, 120 minutes, vs PBS
Description: FIG. 11. […] Wt mice were infused subcutaneously with indicated doses of recombinant osteocalcin or PBS for 14 days before receiving a single injection of glucose. Blood glucose was measured thereafter at indicated times.
Metabolic studies. For glucose tolerance test (GTT), glucose (2 g/kg body weight (BW)) was injected intraperitoneally (IP) after an overnight fast and blood glucose was monitored using blood glucose strips and the Accu-Check glucometer (Roche) at indicated times. For glucose stimulated insulin secretion test (GSIS), glucose (3 g/kg BW) was injected IP after an overnight fast; sera were collected from tails and insulin measured as described (Mauvais-Jarvis et al., 2000). For insulin tolerance test (ITT), mice were fasted for six hours, injected IP with insulin (0.2 U/kg BW) and blood glucose levels were measured at indicated times as described (Mauvais-Jarvis et al., 2002). ITT data are presented as percentage of initial blood glucose concentration. […] Streptozotocin ([…] single injection, Sigma) was injected IP and blood glucose measured as described above every 2 days thereafter. […] Food intake was measured using metabolic cages as the daily change of food weight. Energy expenditure was measured using metabolic cages connected to a calorimeter (Columbus Instrument). Heat values (Kcal/Hr) were recorded over 2 days and reported to each mouse BW. […]

[3] = Osteocalcin subcutaneous infusion in wt mice: body weight and gonadal fat pad mass; type: in vivo, mouse
Description: (FIG. 13A) Indicated doses of recombinant osteocalcin or PBS were infused subcutaneously for 28 days in wt mice. Body weight was recorded at indicated days. (FIG. 13B) Gonadal fat pad mass was measured after 28 days.
In another in vivo experiment, the effect of uncarboxylated osteocalcin on body weight and fat pad mass was monitored (FIG. 13). Wild type mice were infused subcutaneously for 28 days with PBS or uncarboxylated osteocalcin at 0.3, 1 or 3 ng/hour. […] (FIG. 13) Gonadal fat pad mass, measured after 28 days, decreased by about %18 with 3 ng/hour uncarboxylated osteocalcin treatment.

[4] = system: Adiponectin expression in WT adipocytes; experiment: Adiponectin expression in adipocytes treated with osteocalcin (real time PCR); type: cell-based, mouse; conditions: wild type adipocytes treated for 4 hours, real time PCR, vs vehicle
Description: FIG. 7A-O. Esp−/− Mice Are a Model of Increased Osteocalcin Bioactivity. (FIGS. 7A-G) Comparison between 6-week-old WT, Esp−/, Ocn+/−, and Esp−/−; Ocn+/− mice. (FIG. 7A) Blood glucose levels. (FIG. 7B) Serum insulin levels. (FIG. 7C) Serum adiponectin levels. (FIG. 7D) GTT. (FIG. 7E) ITT. (FIG. 7F) GSIS test. (FIG. 7G) Quantification of the number of Ki67-immunoreactive cells in pancreatic islets. […] (FIG. 7K) Expression of Adiponectin in WT adipocytes cultured in presence of vehicle or of 1 ng/ml of commercially available carboxylated osteocalcin (Immunotopics) or bacterially produced uncarboxylated osteocalcin. (FIG. 7L) Expression of Insulin and Cyclin D1 in WT islets cultured in presence of 0.3 ng/ml of bacterially produced uncarboxylated osteocalcin or vehicle. (FIG. 7M) Metabolic parameters and total serum osteocalcin levels in control and obese patients. (FIG. 7N-O) Quantification of carboxylated osteocalcin (HA-bound osteocalcin) in control and obese patients. In (FIGS. 7A)-(C) and (FIGS. G)-(L): *p<0.05 versus WT (Student's t test); in (FIG. D)-(F), °p<0.05 versus WT and *p % 0.001 versus WT (ANOVA followed by post hoc analysis).
FIG. 15. […] Wt adipocytes were treated for 4 hours with recombinant full-length osteocalcin (1-46) or a truncated form (1-36) or vehicle. Adiponectin expression was then quantified by real time PCR.
Primary adipocytes were isolated from epididymal fat pads by collagenase digestion. Briefly, minced adipose tissue was digested by 1 mg/ml collagenase P in KRP Buffer (20 mM HEPES, 120 mM NaCl, 6 mM KCl, 1.2 mM MgSO4, 1 mM CaCl2, 0.6 mM Na2HPO4, 0.4 mM NaH2PO4, 2.5 mM D-glucose, 2% BSA, pH 7.4) for 1 h at 37° C. The isolated cells were washed twice with KRP Buffer before being cultured in αMEM/1% FBS at 37° C. in 5% CO2.
Gene expression analyses. All gene expression analyses were performed using real time PCR. DNAse I-treated total RNA was converted to cDNA with the SuperScript III kit (Invitrogen). Real-time PCR were performed using the Taq SYBR Green Supermix with ROX (Biorad) on an MX3000 instrument (Stratagene); beta-actin amplification was used as an internal reference for each sample. All primers were from SuperArray.
A fragment of uncarboxylated osteocalcin is biologically active. Experiments were performed to test whether truncated osteocalcin was as effective as full-length uncarboxylated osteocalcin in stimulating adiponectin secretion from mouse adipocytes in vitro. Wild type adipocytes were treated for 4 hours with recombinant full-length osteocalcin (1-46) or a truncated form (1-36) (having a deletion of the first ten amino acids from the C-terminal end) or vehicle. Adiponectin expression was then quantified by real time PCR. […]

[5] = listed as recombinant osteocalcin

uncarboxylated osteocalcin: Recombinant mouse osteocalcin bacterially produced as GST fusion, cleaved with thrombin; completely undercarboxylated at all three sites (YLGASVPSPDPLEPTREQCELNPACDELSDQYGLKTAYKRIYGITI; not fully specified; ends and bridges not checked; UniProt P86546 50-95, looked up)
glycemia (blood glucose) [1, 5]: decreases glycemia
glycemia (blood glucose) ([1]; listed as undercarboxylated osteocalcin): decreased glycemia
glucose tolerance [2]: increased glucose tolerance
glucose tolerance [2, 5]: increases glucose tolerance
decrease of gonadal fat pad mass ([3]; 3 ng/hour, measured after 28 days): ~18%
fat mass ([3]; indicated doses infused subcutaneously for 28 days (figure legend)): decreases fat mass
gonadal fat pad mass ([3]; the other doses (0.3, 1 ng/hour), 28 days): did not significantly decrease fat pad mass
body weight ([3]; wild type mice, 0.3, 1 or 3 ng/hour subcutaneously for 28 days, highest dose most effective): slightly reduced
increase of Adiponectin expression [4]: ~1.5 fold
